Measurements reported in patent US20110237455A1, “ARRAY ANALYSIS FOR ONLINE DETECTION” (EPPENDORF AG, priority 2010, published 2011).
Entries after “also recorded” stand apart in the source; their conditions may differ.

Experiments:
[1] = Absorbance spectrum of light absorbing agents; type: physicochemical; settings: light absorbing agent at 1%; for Absorbance spectrum (estimated min-max): estimated width of band covering around 90% of the dye absorbance
Excerpt: (§1) Table 1 summarizes the properties of different light absorbing agents tested according to the invention. The Table presents the absorbance peak and the estimated width of the absorbance band, based on the experimental spectra covering around 90% of the dye absorbance. The intrinsic fluorescence of the agents at the emission wavelength of 570 nm (green channel) or at the emission of 666 nm (red channel) is indicated. Intrinsic fluorescence is expressed as the percentage of the fluorescence compared to cy3 fluorescence if present at 1 μM for green channel (=100%) or Oyster645 fluorescence if present at 1 μM for red channel (=100%). Experimental details are given in example 4.

SuperSalt Taq Polymerase = test: Compatibility of dyes with PCR amplification (no inhibition of the PCR); type: biochemical; settings: highest tested concentration which did not inhibit the PCR
Experimental: The Table gives the upper concentration of the agent at which there is no inhibition of the PCR. Two concentrations of Taq polymerase were compared: 5 and 10 units. Experimental details are given in example 3.
PCR was designed for the amplification of the 35 promoter element of DNA sample of a genetically modified organism (GMO).
For each tested light absorbing agent, PCR were performed with different concentrations of agent: 0.005, 0.01, 0.02, 0.05, 0.1, 0.5, 1 and 2% and either 5 U or 10 U of Taq polymerase in PCR mix. Controls tubes were performed without light absorbing agent with 5 U or 10 U of enzyme.
The PCR performed in PCR tubes in a thermocycler (Eppendorf, Hamburg, Germany). Samples were pre incubated for 10 min at 25° C. and then were first denatured at 94° C. for 3 min. Then 40 cycles of amplification were performed consisting of 30 sec at 95° C., 90 sec at 60° C. and 30 sec at 72° C.
After PCR, 1 μL of the PCR product was analyzed by electrophoresis (Agilent Technologies, 2100 Bioanalyzer). The expected size of the amplicon was 79 bp.

[2] = Intrinsic fluorescence of light absorbing agents at the emission wavelengths (green/red channel); type: physicochemical; settings: for Intrinsic fluorescence (emission 666 nm) in % / Intrinsic fluorescence (emission 570 nm) in %: agent at 1%; for Intrinsic fluorescence (emission 666 nm) in %: compared to Oyster645 fluorescence at 1 μM (=100%); for Fluorescence at the emission wavelength of 570 nm (in words) / Intrinsic fluorescence (emission 570 nm) in %: green channel; for Intrinsic fluorescence (emission 570 nm) in %: compared to cy3 fluorescence at 1 μM (=100%)
Excerpt: This concept is exemplified in Table 1. The dye Azure A is a good example. It can be used for the reduction of the fluorescence of a solution at the excitation/emission wavelength of 532/570 (green channel). […] However, the dye is fluorescent at the emission wavelength of 666 nm used in the red channel.
The dye Azure A is thus not capable of reducing the fluorescent of the solution beyond the intrinsic fluorescence of the light absorbing agent at the emission wavelength in the red channel. In presence of this agent, the fluorescence is about 38% (data not shown) the fluorescence value of the solution in the absence of light absorbing agent (=100%).
as §1

O=C1/C(=C2\Nc3ccc(S(=O)(=O)[O-])cc3C2=O)Nc2ccc(S(=O)(=O)[O-])cc21.[Na+].[Na+] [(C) E132, E132]
Absorbance spectrum peak [1]: 609 nm | Absorbance spectrum (estimated min-max) [1]: 525-675 | Maximum concentration in PCR (%) with 5 U Taq polymerase (SuperSalt Taq Polymerase): 0.05%

CN(C)c1ccc2nc3ccc(N)cc3[s+]c2c1.[Cl-] [(E) Azure A, Azure A]
Intrinsic fluorescence (emission 666 nm) in % ([2]; red channel): 38% | Fluorescence at the emission wavelength of 570 nm (in words) [2]: does not fluoresce | Fluorescence at the emission wavelength of 666 nm (in words) ([2]; red channel): fluorescent | Fluorescence of the solution in presence of the agent ([2]; red channel, solution without light absorbing agent = 100%, data not shown): about 38% | Absorbance spectrum peak [1]: 636 nm | Absorbance spectrum (estimated min-max) [1]: 450-700

O=S(=O)([O-])c1cc(S(=O)(=O)[O-])c2c(N=Nc3ccc(S(=O)(=O)[O-])c4ccccc34)c(O)ccc2c1.[Na+].[Na+].[Na+] [(G) E124, E124]
Intrinsic fluorescence (emission 570 nm) in % [2]: 18% | Intrinsic fluorescence (emission 666 nm) in % ([2]; red channel): 18% | Fluorescence at the emission wavelength of 570 nm (in words) [2]: fluorescent | Fluorescence at the emission wavelength of 666 nm (in words) ([2]; red channel): fluorescent | Absorbance spectrum peak [1]: 508 nm | Absorbance spectrum (estimated min-max) [1]: <400-585

CC(=O)Nc1ccc(S(=O)(=O)[O-])c2cc(S(=O)(=O)[O-])c(N=Nc3ccc(N=Nc4ccc(S(=O)(=O)[O-])cc4)c4ccc(S(=O)(=O)[O-])cc34)c(O)c12.[Na+].[Na+].[Na+].[Na+] [(J) Black Brilliant, Black Brilliant]
Absorbance spectrum peak [1]: 571 nm | Absorbance spectrum (estimated min-max) [1]: 475-670 | Maximum concentration in PCR (%) with 5 U Taq polymerase (SuperSalt Taq Polymerase): 0.05% | Maximum concentration in PCR (%) with 10 U Taq polymerase (SuperSalt Taq Polymerase): 0.1%

CCN(Cc1cccc(S(=O)(=O)[O-])c1)c1ccc(C(=C2C=CC(=[N+](CC)Cc3cccc(S(=O)(=O)[O-])c3)C=C2)c2ccccc2S(=O)(=O)[O-])cc1.[Na+].[Na+] [(L) E133, E133]
Intrinsic fluorescence (emission 666 nm) in % ([2]; red channel): 33% | Fluorescence at the emission wavelength of 666 nm (in words) ([2]; red channel): shows a basal fluorescence; also recorded: fluorescent | Absorbance spectrum peak [1]: 635 nm | Absorbance spectrum (estimated min-max) [1]: 525-690 | Maximum concentration in PCR (%) with 5 U Taq polymerase (SuperSalt Taq Polymerase): 0.05% | Maximum concentration in PCR (%) with 10 U Taq polymerase (SuperSalt Taq Polymerase): 0.1%

Black Intense [(A) Black Intense]
Absorbance spectrum peak [1]: 565 nm | Absorbance spectrum (estimated min-max) [1]: <400-675 | Maximum concentration in PCR (%) with 5 U Taq polymerase (SuperSalt Taq Polymerase): 0.05% | Maximum concentration in PCR (%) with 10 U Taq polymerase (SuperSalt Taq Polymerase): 0.1%

Blue Dextran [(B) Blue Dextran]
Maximum concentration in PCR (%) with 5 U Taq polymerase (SuperSalt Taq Polymerase): 0.5% | Maximum concentration in PCR (%) with 10 U Taq polymerase (SuperSalt Taq Polymerase): 1%

Blue Intense [(K) Blue Intense]
Intrinsic fluorescence (emission 666 nm) in % ([2]; red channel): 47% | Fluorescence at the emission wavelength of 666 nm (in words) ([2]; red channel): fluorescent | Absorbance spectrum peak [1]: 635 nm | Absorbance spectrum (estimated min-max) [1]: 525-690 | Maximum concentration in PCR (%) with 5 U Taq polymerase (SuperSalt Taq Polymerase): 0.05% | Maximum concentration in PCR (%) with 10 U Taq polymerase (SuperSalt Taq Polymerase): 0.1%

Brilliant Blue [(F) Brilliant Blue]
Absorbance spectrum peak [1]: 585 nm | Absorbance spectrum (estimated min-max) [1]: 500-690

Ferritin [(H) Ferritin]
Intrinsic fluorescence (emission 570 nm) in % [2]: 40% | Intrinsic fluorescence (emission 666 nm) in % ([2]; red channel): 15% | Fluorescence at the emission wavelength of 570 nm (in words) [2]: fluorescent | Fluorescence at the emission wavelength of 666 nm (in words) ([2]; red channel): fluorescent | Absorbance spectrum peak [1]: (no peak) | Absorbance spectrum (estimated min-max) [1]: below 500

Melanine [(M) Melanine]
Absorbance spectrum (estimated min-max) [1]: below 700
